Measured values as given in ChEMBL document CHEMBL4196079, “Molecular interaction of novel benzothiazolyl triazolium analogues with calf thymus DNA and HSA-their biological investigation as potent antimicrobial agents” (Eur J Med Chem, 2018).
In brackets after ≈: the same amount, converted by molar mass.

Tests used:
Cyberlindnera jadinii = assay: Antifungal activity against Candida utilis after 24 hrs by NCCLS micro broth dilution method; format: functional; settings: Williopsis jadinii
Escherichia coli [1] = assay: Antibacterial activity against Escherichia coli JM109 after 24 hrs by NCCLS micro broth dilution method; format: functional; settings: JM109, 24 h
Salmonella typhi = assay: Antibacterial activity against Salmonella typhi after 24 hrs by NCCLS micro broth dilution method; format: functional, Salmonella enterica subsp. enterica serovar Typhi; settings: Salmonella enterica
Bacillus subtilis = assay: Antibacterial activity against Bacillus subtilis ATCC 21216 after 24 hrs by NCCLS micro broth dilution method; format: functional; settings: ATCC 21216, 24 h
Shigella dysenteriae = assay: Antibacterial activity against Shigella dysenteriae after 24 hrs by NCCLS micro broth dilution method; format: functional
Saccharomyces cerevisiae [2] = assay: Potency index, ratio of fluconazole MIC to compound MIC for antifungal activity against Saccharomyces cerevisiae; format: functional
Pichia norvegensis = assay: Antifungal activity against Candida mycoderma after 24 hrs by NCCLS micro broth dilution method; format: functional
Staphylococcus aureus [3] = assay: Antibacterial activity against methicillin-resistant Staphylococcus aureus N315 after 24 hrs by NCCLS micro broth dilution method; format: functional; settings: N315, 24 h
Saccharomyces cerevisiae [4] = assay: Antifungal activity against Saccharomyces cerevisiae after 24 hrs by NCCLS micro broth dilution method; format: functional
Candida albicans = assay: Antifungal activity against Candida albicans ATCC 76615 after 24 hrs by NCCLS micro broth dilution method; format: functional; settings: ATCC 76615, 24 h
Aspergillus flavus = assay: Antifungal activity against Aspergillus flavus after 24 hrs by NCCLS micro broth dilution method; format: functional
Escherichia coli [5] = assay: Antibacterial activity against Escherichia coli DH52 after 24 hrs by NCCLS micro broth dilution method; format: functional; settings: DH52, 24 h
Staphylococcus aureus [6] = assay: Antibacterial activity against Staphylococcus aureus ATCC 25923 after 24 hrs by NCCLS micro broth dilution method; format: functional; settings: ATCC 25923, 24 h
Micrococcus luteus = assay: Antibacterial activity against Micrococcus luteus ATCC 4698 after 24 hrs by micro broth dilution method; format: functional; settings: ATCC 4698, 24 h
Bacillus = assay: Antibacterial activity against Bacillus proteus ATCC 13315 after 24 hrs by NCCLS micro broth dilution method; format: functional; settings: ATCC 13315, 24 h
Pseudomonas aeruginosa = assay: Antibacterial activity against Pseudomonas aeruginosa ATCC 27853 after 24 hrs by NCCLS micro broth dilution method; format: functional; settings: ATCC 27853, 24 h
Albumin [7] = target: T1, Albumin (Homo sapiens, UniProt P02768); assay: Binding affinity to HSA assessed as change in free energy at 303 K by Van't hoff plot analysis; format: ADME; settings: isolated protein
T1 sequence (P02768 whole entry): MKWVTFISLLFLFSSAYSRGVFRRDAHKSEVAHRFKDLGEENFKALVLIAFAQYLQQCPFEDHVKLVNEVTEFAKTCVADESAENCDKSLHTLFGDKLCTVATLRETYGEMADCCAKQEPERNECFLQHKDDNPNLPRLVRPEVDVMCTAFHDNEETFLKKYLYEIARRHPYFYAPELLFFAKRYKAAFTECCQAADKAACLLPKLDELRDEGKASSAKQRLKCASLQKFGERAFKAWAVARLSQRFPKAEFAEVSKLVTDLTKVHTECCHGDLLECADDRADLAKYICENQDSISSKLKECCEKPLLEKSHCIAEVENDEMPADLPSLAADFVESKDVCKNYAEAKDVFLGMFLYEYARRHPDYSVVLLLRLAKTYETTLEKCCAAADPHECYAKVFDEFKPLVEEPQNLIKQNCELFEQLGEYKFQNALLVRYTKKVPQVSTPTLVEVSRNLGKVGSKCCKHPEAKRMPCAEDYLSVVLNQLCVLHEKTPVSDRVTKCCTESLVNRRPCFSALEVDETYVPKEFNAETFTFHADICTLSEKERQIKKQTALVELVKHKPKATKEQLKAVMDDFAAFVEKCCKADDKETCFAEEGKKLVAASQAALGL

Albumin [8] = target: T1, Albumin; assay: Binding affinity to HSA assessed as change in enthalpy at 286 K by Van't hoff plot analysis; format: ADME; settings: isolated protein
Albumin [9] = target: T1, Albumin; assay: Binding affinity to HSA assessed as Stern-Volmer quenching constant at pH 7.3 at 303 K by fluorescence assay; format: ADME; settings: isolated protein
Albumin [10] = target: T1, Albumin; assay: Binding affinity to HSA assessed as change in entropy at 286 K by Van't hoff plot analysis; format: ADME; settings: isolated protein
Calf thymus DNA = assay: Inhibition of neutral red binding to calf thymus DNA by UV-Visible absorption spectroscopy; format: nucleic-acid assay; settings: Bos taurus
Albumin [11] = target: T1, Albumin; assay: Binding affinity to HSA assessed as change in free energy at 310 K by Van't hoff plot analysis; format: ADME; settings: isolated protein
Albumin [12] = target: T1, Albumin; assay: Binding affinity to HSA assessed as biomolecular quenching rate constant at pH 7.3 at 286 K by fluorescence assay; format: ADME; settings: isolated protein
Albumin [13] = target: T1, Albumin; assay: Binding affinity to HSA assessed as biomolecular quenching rate constant at pH 7.3 at 310 K by fluorescence assay; format: ADME; settings: isolated protein
Albumin [14] = target: T1, Albumin; assay: Binding affinity to HSA assessed as change in free energy at 286 K by Van't hoff plot analysis; format: ADME; settings: isolated protein
Albumin [15] = target: T1, Albumin; assay: Binding affinity to HSA assessed as Stern-Volmer quenching constant at pH 7.3 at 286 K by fluorescence assay; format: ADME; settings: isolated protein
Albumin [16] = target: T1, Albumin; assay: Binding affinity to HSA assessed as biomolecular quenching rate constant at pH 7.3 at 303 K by fluorescence assay; format: ADME; settings: isolated protein
Albumin [17] = target: T1, Albumin; assay: Binding affinity to HSA assessed as Stern-Volmer quenching constant at pH 7.3 at 310 K by fluorescence assay; format: ADME; settings: isolated protein
MDA-MB-231 = assay: Cytotoxicity against human MDA-MB-231 cells after 24 hrs by MTT assay; format: cell-based; settings: MDA-MB-231, 24 h

SMILES	MIC (Cyberlindnera jadinii)	MIC (Escherichia coli [1])	MIC (Salmonella typhi)	MIC (Bacillus subtilis)	MIC (Shigella dysenteriae)	Ratio (Saccharomyces cerevisiae [2])	MIC (Pichia norvegensis)	MIC (Staphylococcus aureus [3])	MIC (Saccharomyces cerevisiae [4])	MIC (Candida albicans)	MIC (Aspergillus flavus)	MIC (Escherichia coli [5])	MIC (Staphylococcus aureus [6])	MIC (Micrococcus luteus)	MIC (Bacillus)	MIC (Pseudomonas aeruginosa)	further results
CCCCCCn1cc(COCc2c(-c3ccccc3)nc3sc4ccccc4n23)nn1	4 µg/mL (≈ 8.98 µM)	32 µg/mL (≈ 71.8 µM)	16 µg/mL (≈ 35.9 µM)	16 µg/mL (≈ 35.9 µM)	2 µg/mL (≈ 4.49 µM)	2	32 µg/mL (≈ 71.8 µM)	16 µg/mL (≈ 35.9 µM)	8 µg/mL (≈ 18 µM)	8 µg/mL (≈ 18 µM)	32 µg/mL (≈ 71.8 µM)	32 µg/mL (≈ 71.8 µM)	8 µg/mL (≈ 18 µM)	2 µg/mL (≈ 4.49 µM)	8 µg/mL (≈ 18 µM)	16 µg/mL (≈ 35.9 µM)	
CCOc1ccc2c(c1)sc1nc(-c3ccccc3)c(COCc3cn(Cc4ccc(Cl)c(Cl)c4)nn3)n12	2 µg/mL (≈ 3.54 µM)	1 µg/mL (≈ 1.77 µM)	8 µg/mL (≈ 14.2 µM)	4 µg/mL (≈ 7.09 µM)	16 µg/mL (≈ 28.3 µM)		4 µg/mL (≈ 7.09 µM)	16 µg/mL (≈ 28.3 µM)	16 µg/mL (≈ 28.3 µM)	8 µg/mL (≈ 14.2 µM)	64 µg/mL (≈ 113 µM)	32 µg/mL (≈ 56.7 µM)	16 µg/mL (≈ 28.3 µM)	2 µg/mL (≈ 3.54 µM)	8 µg/mL (≈ 14.2 µM)	4 µg/mL (≈ 7.09 µM)	deltaG (Albumin [7]): -5.9183 kcal/mol; deltaH (Albumin [8]): -1.54 kcal/mol; KSV (Albumin [9]): 3.54 ×10⁴ L/mol; deltaS (Albumin [10]): 60.5 J/mol.K; inhibition (Calf thymus DNA): Dose-dependent effect; deltaG (Albumin [11]): -6.0194 kcal/mol; Kq (Albumin [12]): 6.36 ×10¹² L/mol/s; Kq (Albumin [13]): 5.34 ×10¹² L/mol/s; deltaG (Albumin [14]): -5.9113 kcal/mol; KSV (Albumin [15]): 4.04 ×10⁴ L/mol; Kq (Albumin [16]): 5.53 ×10¹² L/mol/s; KSV (Albumin [17]): 3.42 ×10⁴ L/mol
CCOc1ccc2c(c1)sc1nc(-c3ccccc3)c(COCc3cn(Cc4cccc(F)c4)nn3)n12	16 µg/mL (≈ 31.2 µM)	128 µg/mL (≈ 249 µM)	32 µg/mL (≈ 62.3 µM)	128 µg/mL (≈ 249 µM)	128 µg/mL (≈ 249 µM)		16 µg/mL (≈ 31.2 µM)	16 µg/mL (≈ 31.2 µM)	32 µg/mL (≈ 62.3 µM)	8 µg/mL (≈ 15.6 µM)	64 µg/mL (≈ 125 µM)	16 µg/mL (≈ 31.2 µM)	128 µg/mL (≈ 249 µM)	128 µg/mL (≈ 249 µM)	64 µg/mL (≈ 125 µM)	64 µg/mL (≈ 125 µM)	IC50 (MDA-MB-231): < 100 µg/mL
CCCCCn1cc(COCc2c(-c3ccccc3)nc3sc4cc(OCC)ccc4n23)nn1	1 µg/mL (≈ 2.1 µM)	128 µg/mL (≈ 269 µM)	128 µg/mL (≈ 269 µM)	64 µg/mL (≈ 135 µM)	128 µg/mL (≈ 269 µM)	2	4 µg/mL (≈ 8.41 µM)	32 µg/mL (≈ 67.3 µM)	8 µg/mL (≈ 16.8 µM)	8 µg/mL (≈ 16.8 µM)	32 µg/mL (≈ 67.3 µM)	128 µg/mL (≈ 269 µM)	128 µg/mL (≈ 269 µM)	128 µg/mL (≈ 269 µM)	64 µg/mL (≈ 135 µM)	128 µg/mL (≈ 269 µM)	
O=[N+]([O-])c1ccc(Cn2cc(COCc3c(-c4ccccc4)nc4sc5ccccc5n34)nn2)cc1	32 µg/mL (≈ 64.4 µM)	4 µg/mL (≈ 8.06 µM)	8 µg/mL (≈ 16.1 µM)	64 µg/mL (≈ 129 µM)	32 µg/mL (≈ 64.4 µM)		32 µg/mL (≈ 64.4 µM)	32 µg/mL (≈ 64.4 µM)	32 µg/mL (≈ 64.4 µM)	32 µg/mL (≈ 64.4 µM)	256 µg/mL (≈ 516 µM)	16 µg/mL (≈ 32.2 µM)	32 µg/mL (≈ 64.4 µM)	64 µg/mL (≈ 129 µM)	32 µg/mL (≈ 64.4 µM)	64 µg/mL (≈ 129 µM)	
